We go through 21 compounds from patent US10301280B2 (Plexxikon Inc., priority 2012, dated 2019).

One may read the IC50 as the point on the concentration scale where inhibition reaches its midpoint. The low end stands for higher potency, the high end for lower potency.

In assay [1] the test system is BaF3-FL KIT D816V or BaF3-FL KIT V560G/D816V cell line. Put plainly: Cell-based assays of c-Kit mutant kinase activity (cell growth, ATPlite). To be noted: at least one of the c-kit cell assays of Example 26. A digest of the protocol: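 BaF3 cells dependent on full-length human KIT (D816V or V560G/D816V) seeded at 1×10^4 cells/well in RPMI with 10% FBS. Eight-point 1:3 dilutions from 10 μM top final (0.2% DMSO), 3 days at 37° C., 5% CO2. ATPlite luminescence gave IC50.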

In a further assay the target is c-kit mutant D816V (Homo sapiens (Human), UniProt P10721, D816V/DEL694-753). Put plainly: c-Kit mutant D816V biochemical assay (AlphaScreen). To be noted: c-kit D816V biochemical inhibitory activity. A digest of the protocol: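 His-tagged c-Kit D816V kinase domain (551-934, Δ694-753, E. coli) phosphorylating 30 nM biotin-(E4Y)10 at 10 μM ATP in HEPES pH 7.2 with Mg/Mn, 5% DMSO, 30 min at room temperature. PY20-acceptor/streptavidin-donor AlphaScreen detection after EDTA stop. IC50 from 8-point 1:3 titration.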
c-kit mutant D816V, sequence (P10721 other isoform, or with tags, fused parts or gaps D816V/del 694-753): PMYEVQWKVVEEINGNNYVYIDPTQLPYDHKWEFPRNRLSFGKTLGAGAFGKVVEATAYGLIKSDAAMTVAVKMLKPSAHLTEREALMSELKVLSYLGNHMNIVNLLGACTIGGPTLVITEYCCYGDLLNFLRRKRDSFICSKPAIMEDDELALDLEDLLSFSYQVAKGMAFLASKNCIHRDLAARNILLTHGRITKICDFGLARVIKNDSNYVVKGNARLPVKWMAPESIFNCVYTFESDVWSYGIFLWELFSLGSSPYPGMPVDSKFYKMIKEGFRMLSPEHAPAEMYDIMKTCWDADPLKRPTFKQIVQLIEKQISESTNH
In general terms: Bead proximity is the source of the signal in Alpha formats.

For the compound `O=C(Nc1cnc2[nH]c(-c3ccccc3)cc2c1)c1[nH]ncc1Br` [P-2005, 4-bromo-N-(2-phenyl-1H-pyrrolo[2,3-b]pyridin-5-yl)-1H-pyrazole-5-carboxamide], the results for the 50% inhibitory concentration (IC50) (in assay [1]; against c-kit mutant D816V) were under 10 µM and 0.0001 to 1 µM, respectively.

Regarding `Cc1n[nH]c(C(=O)Nc2cnc3[nH]c(-c4ccccc4)cc3c2)c1C` [P-2007, 3,4-dimethyl-N-(2-phenyl-1H-pyrrolo[2,3-b]pyridin-5-yl)-1H-pyrazole-5-carboxamide], the IC50 in assay [1] was under 10 µM; against c-kit mutant D816V, 0.0001 to 1 µM.

As for `Cc1[nH]nc(C(=O)Nc2cnc3[nH]c(-c4ccc(N5CCOCC5)cc4)cc3c2)c1C` [P-2059, 4,5-dimethyl-N-[2-(4-morpholinophenyl)-1H-pyrrolo[2,3-b]pyridin-5-yl]-1H-pyrazole-3-carboxamide], the values for the half-maximal inhibitory concentration (IC50) (in assay [1]; at c-kit mutant D816V) were under 10 µM and 0.0001 to 1 µM, respectively.

For `Cc1n[nH]c(C(=O)Nc2cnc3[nH]c(C4=CCN(C(=O)C5CC5)C4)cc3c2)c1Cl` [P-2060, 4-chloro-N-[2-[1-(cyclopropanecarbonyl)-2,5-dihydropyrrol-3-yl]-1H-pyrrolo[2,3-b]pyridin-5-yl]-3-methyl-1H-pyrazole-5-carboxamide], the IC50 in assay [1] is under 10 µM; against c-kit mutant D816V, 0.0001 to 1 µM.

`CC(=O)N1CC=C(c2cc3cc(NC(=O)c4[nH]nc(C)c4Cl)cnc3[nH]2)CC1` [P-2061, N-[2-(1-acetyl-3,6-dihydro-2H-pyridin-4-yl)-1H-pyrrolo[2,3-b]pyridin-5-yl]-4-chloro-3-methyl-1H-pyrazole-5-carboxamide]: the IC50 in assay [1] is under 10 µM; against c-kit mutant D816V, 0.0001 to 1 µM.

Consider `Cc1n[nH]c(C(=O)Nc2cnc3[nH]c(C4=CCN(C(=O)N5CCOCC5)C4)cc3c2)c1Cl` [P-2062, 4-chloro-3-methyl-N-[2-[1-(morpholine-4-carbonyl)-2,5-dihydropyrrol-3-yl]-1H-pyrrolo[2,3-b]pyridin-5-yl]-1H-pyrazole-5-carboxamide], for which the IC50 in assay [1] was under 10 µM; against c-kit mutant D816V it was 0.0001 to 1 µM.

As to `Cc1n[nH]c(C(=O)Nc2cnc3[nH]c(-c4cccc(N(C)C)c4)cc3c2)c1C` [P-2064, N-[2-[3-(dimethylamino)phenyl]-1H-pyrrolo[2,3-b]pyridin-5-yl]-3,4-dimethyl-1H-pyrazole-5-carboxamide], the IC50 in assay [1] was under 10 µM; against c-kit mutant D816V, 0.0001 to 1 µM.

In the case of `Cc1n[nH]c(C(=O)Nc2cnc3[nH]c(-c4c(C)noc4C)cc3c2)c1C` [P-2065, N-[2-(3,5-dimethylisoxazol-4-yl)-1H-pyrrolo[2,3-b]pyridin-5-yl]-3,4-dimethyl-1H-pyrazole-5-carboxamide], the IC50 was under 10 µM in assay [1] and 0.0001 to 1 µM on c-kit mutant D816V.

Turning to `CNC(=O)c1ccc(-c2cc3cc(NC(=O)c4[nH]nc(C)c4C)cnc3[nH]2)cc1` [P-2067, 3,4-dimethyl-N-[2-[4-(methylcarbamoyl)phenyl]-1H-pyrrolo[2,3-b]pyridin-5-yl]-1H-pyrazole-5-carboxamide], the IC50 in assay [1] is under 10 µM; at c-kit mutant D816V it was 0.0001 to 1 µM.

Turning to `Cc1[nH]nc(C(=O)Nc2cnc3[nH]c(-c4ccnc(N5CCN(C)CC5)c4)cc3c2)c1C` [P-2069, 4,5-dimethyl-N-[2-[2-(4-methylpiperazin-1-yl)-4-pyridyl]-1H-pyrrolo[2,3-b]pyridin-5-yl]-1H-pyrazole-3-carboxamide], the IC50 in assay [1] was under 10 µM; at c-kit mutant D816V, 0.0001 to 1 µM.

On to `Cc1[nH]nc(C(=O)Nc2cnc3[nH]c(-c4cccc(N5CCOCC5)c4)cc3c2)c1C` [P-2070, 4,5-dimethyl-N-[2-(3-morpholinophenyl)-1H-pyrrolo[2,3-b]pyridin-5-yl]-1H-pyrazole-3-carboxamide], for which the IC50 in assay [1] was under 10 µM; on c-kit mutant D816V, 0.0001 to 1 µM.

`Cc1n[nH]c(C(=O)Nc2cnc3[nH]c(C4=CCN(C(=O)CN5CCOCC5)CC4)cc3c2)c1C` [P-2073, 3,4-dimethyl-N-[2-[1-(2-morpholinoacetyl)-3,6-dihydro-2H-pyridin-4-yl]-1H-pyrrolo[2,3-b]pyridin-5-yl]-1H-pyrazole-5-carboxamide]: the concentration for half-maximal inhibition (IC50) in assay [1] was under 10 µM; on c-kit mutant D816V, 0.0001 to 1 µM.

With `Cc1n[nH]c(C(=O)Nc2cnc3[nH]c(C4=CCN(C(=O)C(O)CO)CC4)cc3c2)c1C` (stereo not drawn) [P-2074, N-[2-[1-(2,3-dihydroxypropanoyl)-3,6-dihydro-2H-pyridin-4-yl]-1H-pyrrolo[2,3-b]pyridin-5-yl]-3,4-dimethyl-1H-pyrazole-5-carboxamide], the values for the IC50 (in assay [1]; on c-kit mutant D816V) were under 10 µM and 0.0001 to 1 µM, respectively.

For the compound `Cc1n[nH]c(C(=O)Nc2cnc3[nH]c(-c4cccc(N5CCCC5)c4)cc3c2)c1C` [P-2079, 3,4-dimethyl-N-[2-(3-pyrrolidin-1-ylphenyl)-1H-pyrrolo[2,3-b]pyridin-5-yl]-1H-pyrazole-5-carboxamide], the IC50 in assay [1] was under 10 µM; against c-kit mutant D816V it was 0.0001 to 1 µM.

Consider `Cc1n[nH]c(C(=O)Nc2cnc3[nH]c(C4=CCC(N)CC4)cc3c2)c1C` (stereo not drawn) [P-2080, N-[2-(4-aminocyclohexen-1-yl)-1H-pyrrolo[2,3-b]pyridin-5-yl]-3,4-dimethyl-1H-pyrazole-5-carboxamide], for which the figures for the half-inhibitory concentration (IC50) (in assay [1]; on c-kit mutant D816V) were under 10 µM and 0.0001 to 1 µM, respectively.

With `Cc1n[nH]c(C(=O)Nc2cnc3[nH]c(-c4ccc(C#N)c(N5CCOCC5)c4)cc3c2)c1C` [P-2081, N-[2-(4-cyano-3-morpholino-phenyl)-1H-pyrrolo[2,3-b]pyridin-5-yl]-3,4-dimethyl-1H-pyrazole-5-carboxamide], the IC50 in assay [1] is under 10 µM; against c-kit mutant D816V it was 0.0001 to 1 µM.

In the case of `Cc1n[nH]c(C(=O)Nc2cnc3[nH]c(-n4cccn4)cc3c2)c1C` [P-2112, 3,4-dimethyl-N-(2-pyrazol-1-yl-1H-pyrrolo[2,3-b]pyridin-5-yl)-1H-pyrazole-5-carboxamide], the IC50 in assay [1] is under 10 µM; on c-kit mutant D816V, 0.0001 to 1 µM.

`Cc1cc(C(=O)Nc2cnc3[nH]c(-n4cccn4)cc3c2)[nH]n1` [P-2116, 3-methyl-N-(2-pyrazol-1-yl-1H-pyrrolo[2,3-b]pyridin-5-yl)-1H-pyrazole-5-carboxamide]: the IC50 in assay [1] was under 10 µM; against c-kit mutant D816V, 1 to 10 µM.

Consider `Cc1n[nH]c(C(=O)Nc2cnc3[nH]c(-c4cccc(N5CCN(C(=O)C6CC6)CC5)c4)cc3c2)c1C` [P-2118, N-[2-[3-[4-(cyclopropanecarbonyl)piperazin-1-yl]phenyl]-1H-pyrrolo[2,3-b]pyridin-5-yl]-3,4-dimethyl-1H-pyrazole-5-carboxamide], for which the figures for the IC50 (in assay [1]; against c-kit mutant D816V) were under 10 µM and 0.0001 to 1 µM, respectively.

Regarding `Cc1n[nH]c(C(=O)Nc2cnc3sc(-c4ccccc4)nc3c2)c1C` [P-2144, 3,4-dimethyl-N-(2-phenylthiazolo[5,4-b]pyridin-6-yl)-1H-pyrazole-5-carboxamide], the IC50 in assay [1] was under 10 µM; on c-kit mutant D816V it was 1 to 10 µM.

As for `Cc1n[nH]c(C(=O)Nc2cnc3[nH]c(-c4ccc(C(=O)NC5CC5)cc4)cc3c2)c1C` [P-2148, N-[2-[4-(cyclopropylcarbamoyl)phenyl]-1H-pyrrolo[2,3-b]pyridin-5-yl]-3,4-dimethyl-1H-pyrazole-5-carboxamide], the IC50 was under 10 µM in assay [1] and 0.0001 to 1 µM on c-kit mutant D816V.
